Laboratory results as given in the Deep4Chem optical property database.
Where “and” joins values, the source holds several entries; their conditions need not be identical. Equal entries are not always repeated. Blank lines part the entries; values can stand above or below the compound they belong to.

Experiment: solvent given as SMILES

fluorescence lifetime (in C1CCCCC1): 2.38 ns | fluorescence lifetime (in CC1CCCCC1): 2.32 ns | fluorescence lifetime (in CC#N): 3.2 ns and 2.55 ns | fluorescence lifetime (in CCC(C)CC): 2.38 ns | fluorescence lifetime (in CCCCCC): 2.37 ns | fluorescence lifetime (in CCO): 2.5 ns | fluorescence lifetime (in CCOC(C)=O): 2.46 ns
Structure (SMILES): CCN(CC)c1ccc2cc(-c3nc4ccccc4s3)c(=O)oc2c1

fluorescence lifetime (in CC#N): 12.1 ns | fluorescence lifetime (in ClCCl): 0.78 ns
Structure (SMILES): Cc1cc(-c2ccccc2)cc(C)[o+]1

fluorescence lifetime (in C1CCOC1): 3.2 ns
Structure (SMILES): CCC1(CC)c2ccccc2-c2c1c1c(c3c2C(CC)(CC)c2cc(B(c4c(C)cc(C)cc4C)c4c(C)cc(C)cc4C)ccc2-3)C(CC)(CC)c2ccccc2-1

Structure (SMILES): CCCCCCCCCCCCOc1ccc(C#Cc2ccc(C#Cc3ccc(OCCCCCCCCCCCC)c(OCCCCCCCCCCCC)c3)c3nc4c5ccccc5c5ccccc5c4nc23)cc1OCCCCCCCCCCCC
fluorescence lifetime (in C1CCOC1): 8.22 ns | fluorescence lifetime (in Cc1ccccc1): 7.13 ns | fluorescence lifetime (in ClCCl): 8.62 ns

fluorescence lifetime (in CCCCCC): 57.8 ns | fluorescence lifetime (in CO): 70.6 ns | fluorescence lifetime (in ClCCl): 42 ns
Structure (SMILES): CCCCc1ccc2ccc3c(CCCC)ccc4ccc1c2c43

fluorescence lifetime (in ClC(Cl)Cl): 2.4 ns
Structure (SMILES): c1ccc(-c2nc(-c3ccc(N4CCCC4)cc3)cc(-c3ccc4ccccc4c3)n2)cc1

fluorescence lifetime (in ClCCl): 6.59 ns
Structure (SMILES): CCN(CC)c1ccc(-c2cc3c(s2)c(C(=O)OC)cc(=O)n3C)cc1

fluorescence lifetime (in ClCCl): 8.5 ns
Structure (SMILES): COc1cc(/C=C/c2nc(N3CCOCC3)c3c([n+]2[O-])CCCC3)cc(OC)c1OC

Structure (SMILES): C(=C\c1cccc2ccccc12)/c1ccc(-c2nnc(-c3ccc(-c4cc5ccccc5s4)cc3)o2)cc1
fluorescence lifetime (in Cc1ccccc1): 0.97 ns | fluorescence lifetime (in ClC(Cl)Cl): 1.15 ns

fluorescence lifetime (in C1CCOC1): 2.8 ns
Structure (SMILES): N#Cc1ccc(C2=CC3=c4cc(-c5ccc(C#N)cc5)c5nc(C(F)(F)C(F)(F)C(F)(F)F)nc6c(-c7ccc(C#N)cc7)cc(c4c65)C4=CC(c5ccc(C#N)cc5)=C5N=C(C(F)(F)C(F)(F)C(F)(F)F)N=C2C5C43)cc1 (configuration not stated)

fluorescence lifetime (in ClCCl): 8.89 ns
Structure (SMILES): CCCCCCCCCCCn1cccc1C1=[N+]2C(=Cc3c(C)cc(C)n3[B-]2(F)F)c2ccccc21

fluorescence lifetime (in CC#N): 2.5 ns
Structure (SMILES): CCN(CC)c1ccc2cc3c(cc2c1)C1(c2ccccc2Oc2ccccc21)c1cc2cc(N(CC)CC)ccc2cc1C3=O

Structure (SMILES): COc1ccc(C2=C3C=CC(C)=[N+]3[B-](F)(F)n3c(C)ccc32)cc1
fluorescence lifetime (in C1CCCCC1): 2.87 ns | fluorescence lifetime (in CC#N): 1.6 ns | fluorescence lifetime (in CCOC(C)=O): 2.24 ns | fluorescence lifetime (in CO): 1.87 ns | fluorescence lifetime (in Cc1ccccc1): 3.35 ns | fluorescence lifetime (in ClC(Cl)Cl): 3.28 ns

fluorescence lifetime (in CC#N): 12.8 ns
Structure (SMILES): O=C1c2ccccc2C2=C(c3ccccn3)NN=C(c3ccccn3)C2c2ccccc21 (configuration not stated)

fluorescence lifetime (in CC#N): 4.97 ns
Structure (SMILES): C[n+]1ccn(CCCCc2ccc3c(c2)c2ccccc2n3-c2cc(C#N)c(C#N)cc2-n2c3ccccc3c3cc(CCCCn4cc[n+](C)c4)ccc32)c1

Structure (SMILES): CC1(C)c2ccccc2N(c2ccccc2)c2ccc(-c3nc(-c4ccccc4)nc(-c4ccccc4)n3)cc21
fluorescence lifetime (in O=P(c1ccccc1)(c1ccccc1)c1ccccc1Oc1ccccc1P(=O)(c1ccccc1)c1ccccc1): 4.37 ns

Structure (SMILES): c1ccc2nc3cccc(-c4ccc(-n5c6ccccc6c6ccccc65)cc4)c3cc2c1
fluorescence lifetime (in CC#N): 10.6 ns | fluorescence lifetime (in CCCCCC): 0.2 ns | fluorescence lifetime (in CCOCC): 0.2 ns | fluorescence lifetime (in ClCCl): 6.68 ns

Structure (SMILES): COc1ccc2c3c(cccc13)C(=O)c1ccccc1-2
fluorescence lifetime (in CC#N): 13.2 ns | fluorescence lifetime (in CC(C)=O): 10.5 ns | fluorescence lifetime (in CC(C)O): 12.7 ns | fluorescence lifetime (in CCCCOCCCC): 0.6 ns | fluorescence lifetime (in CCOC(C)=O): 4.1 ns | fluorescence lifetime (in CCOCC): 0.9 ns | fluorescence lifetime (in CO): 12.6 ns | fluorescence lifetime (in Cc1ccccc1): 1.4 ns | fluorescence lifetime (in Clc1ccccc1): 6 ns | fluorescence lifetime (in N#Cc1ccccc1): 14.1 ns | fluorescence lifetime (in O=C1CCCCC1): 7.8 ns

Structure (SMILES): Cc1ccc(C(=O)NN2C3=C(CC4=C2CCCC4=O)C(=O)CCC3)cc1
fluorescence lifetime (in C1CCOC1): 4.1 ns | fluorescence lifetime (in CC#N): 5.9 ns | fluorescence lifetime (in CC(C)=O): 5.1 ns | fluorescence lifetime (in CCCCCO): 5.9 ns | fluorescence lifetime (in CO): 4.6 ns | fluorescence lifetime (in ClC(Cl)Cl): 7.9 ns | fluorescence lifetime (in ClCCl): 5.3 ns

fluorescence lifetime (in ClC(Cl)Cl): 0.153 ns
Structure (SMILES): CN(C)c1ccc(/C=C/c2cc[n+](C)cc2)cc1

fluorescence lifetime (in ClCCl): 3.57 ns
Structure (SMILES): c1ccc(-p2c3ccccc3c3sc4ccccc4c32)cc1 (configuration not stated)

fluorescence lifetime (in CC#N): 2.68 ns | fluorescence lifetime (in CO): 2.52 ns | fluorescence lifetime (in O): 3.01 ns
Structure (SMILES): CN1CCN(CCCN2c3ccccc3Sc3ccc(C(F)(F)F)cc32)CC1

Structure (SMILES): CC(C)(C)c1ccc2c(c1)c1cc(C(C)(C)C)ccc1n2-c1ccc(C#Cc2ccccc2)cc1
fluorescence lifetime (in CC#N): 4.75 ns | fluorescence lifetime (in CCCCC): 2.07 ns | fluorescence lifetime (in CO): 4.99 ns | fluorescence lifetime (in Cc1ccccc1): 1.77 ns | fluorescence lifetime (in ClC(Cl)Cl): 2.39 ns | fluorescence lifetime (in ClCCl): 3.91 ns

fluorescence lifetime (in O): 8.6 ns
Structure (SMILES): O=C(O)CCCCCn1c2ccccc2c(=O)c2cc(Br)ccc21

fluorescence lifetime (in ClC(Cl)Cl): 1.92 ns
Structure (SMILES): CCCCCCN1C(=O)c2cccc3c(-c4cccs4)ccc(c23)C1=O

Structure (SMILES): FC(F)(F)c1cc2n(n1)[B-]1(c3ccccc3Oc3ccccc31)[n+]1ccc3ccccc3c1-2
fluorescence lifetime (in C1CCCCC1): 1.79 ns | fluorescence lifetime (in Cc1ccccc1): 1.85 ns | fluorescence lifetime (in ClCCl): 2.45 ns

Structure (SMILES): COc1ccc2c(c1)c1cc(OC)ccc1n2-c1ccc(S(=O)(=O)c2ccc(-n3c4ccc(OC)cc4c4cc(OC)ccc43)cc2)cc1
fluorescence lifetime (in Cc1ccccc1): 11 ns

fluorescence lifetime (in C1CCOC1): 1.23 ns | fluorescence lifetime (in CC#N): 1.79 ns | fluorescence lifetime (in CN(C)C=O): 1.61 ns | fluorescence lifetime (in ClC(Cl)Cl): 1.14 ns | fluorescence lifetime (in c1ccccc1): 1.65 ns
Structure (SMILES): N#Cc1ccc(C#Cc2ccc(C#Cc3ccc(C#Cc4ccccc4C#N)cc3C#N)cc2C#N)cc1
